# Measurements: ChEMBL document CHEMBL1201862, “PubChem BioAssay data set” (2004)
# Active and inactive are the calls of the source.
# How the values were obtained:
# [1] = molecular target: T1, Long-chain-fatty-acid--AMP ligase FadD28 (Mycobacterium tuberculosis, UniProt P9WQ59); assay: Fluorescence polarization aasay to screen for inhibitors that compete for the binding of FadD28 to a bisubstrate Measured in Biochemical System Using Plate Reader - 2147-01_Inhibitor_Dose_CherryPick_Activity.; type: functional, Mycobacterium tuberculosis H37Rv
# T1 sequence (P9WQ59 whole entry): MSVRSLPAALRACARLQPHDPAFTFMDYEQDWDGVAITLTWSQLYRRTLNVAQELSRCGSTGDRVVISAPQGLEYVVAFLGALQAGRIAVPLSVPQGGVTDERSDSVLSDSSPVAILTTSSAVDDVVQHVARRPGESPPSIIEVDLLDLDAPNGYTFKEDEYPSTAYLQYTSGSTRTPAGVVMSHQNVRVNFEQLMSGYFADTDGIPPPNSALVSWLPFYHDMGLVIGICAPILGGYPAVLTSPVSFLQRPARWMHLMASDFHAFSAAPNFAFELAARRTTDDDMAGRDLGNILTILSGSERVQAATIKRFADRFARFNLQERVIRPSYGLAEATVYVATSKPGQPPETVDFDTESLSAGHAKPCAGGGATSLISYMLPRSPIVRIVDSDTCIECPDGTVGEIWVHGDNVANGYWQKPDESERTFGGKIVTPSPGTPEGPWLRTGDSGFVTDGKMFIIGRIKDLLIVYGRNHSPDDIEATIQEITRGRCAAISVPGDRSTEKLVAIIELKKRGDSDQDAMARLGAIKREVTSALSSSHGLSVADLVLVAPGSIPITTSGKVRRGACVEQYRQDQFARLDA
# [2] = molecular target: T2, Rac GTPase-activating protein 1 (Homo sapiens, UniProt Q9H0H5); assay: blockers of MgcRacGAP-driven Rac1 GTP hydrolysis – biochemical, ADP Hunter fluorescence, primary and confirmatory, confirmation (AID 624330); type: functional
# T2 sequence (Q9H0H5 whole entry): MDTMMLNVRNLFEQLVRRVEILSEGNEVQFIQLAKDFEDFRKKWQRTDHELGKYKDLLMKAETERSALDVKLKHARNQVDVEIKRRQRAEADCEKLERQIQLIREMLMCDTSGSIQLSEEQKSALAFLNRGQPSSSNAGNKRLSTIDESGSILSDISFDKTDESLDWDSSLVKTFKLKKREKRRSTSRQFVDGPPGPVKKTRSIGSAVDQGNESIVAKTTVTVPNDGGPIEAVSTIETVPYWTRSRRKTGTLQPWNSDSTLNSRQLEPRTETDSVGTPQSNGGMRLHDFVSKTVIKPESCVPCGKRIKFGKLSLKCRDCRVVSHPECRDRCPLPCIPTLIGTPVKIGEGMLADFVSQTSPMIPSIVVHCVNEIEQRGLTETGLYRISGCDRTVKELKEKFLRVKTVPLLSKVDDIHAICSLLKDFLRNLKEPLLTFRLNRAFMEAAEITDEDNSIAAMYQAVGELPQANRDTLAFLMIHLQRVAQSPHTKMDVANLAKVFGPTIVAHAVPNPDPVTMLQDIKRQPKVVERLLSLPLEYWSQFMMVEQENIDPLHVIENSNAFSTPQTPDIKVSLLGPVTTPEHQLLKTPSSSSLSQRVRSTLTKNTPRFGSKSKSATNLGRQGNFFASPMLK
# Large T antigen = Large T antigen (Simian virus 40, UniProt P03070); type: functional, Betapolyomavirus macacae;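 note: Confirmatory-stage PubChem screen for compounds that inhibit SV40 T antigen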
# [3] = molecular target: T3, Nuclear receptor subfamily 0 group B member 1 (Homo sapiens, UniProt P51843); type: functional, cell-based;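 note: HEK293T cells transfected with SF-1 and DAX-1 plus StAR promoter luciferase reporter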
# T3 sequence (P51843 whole entry): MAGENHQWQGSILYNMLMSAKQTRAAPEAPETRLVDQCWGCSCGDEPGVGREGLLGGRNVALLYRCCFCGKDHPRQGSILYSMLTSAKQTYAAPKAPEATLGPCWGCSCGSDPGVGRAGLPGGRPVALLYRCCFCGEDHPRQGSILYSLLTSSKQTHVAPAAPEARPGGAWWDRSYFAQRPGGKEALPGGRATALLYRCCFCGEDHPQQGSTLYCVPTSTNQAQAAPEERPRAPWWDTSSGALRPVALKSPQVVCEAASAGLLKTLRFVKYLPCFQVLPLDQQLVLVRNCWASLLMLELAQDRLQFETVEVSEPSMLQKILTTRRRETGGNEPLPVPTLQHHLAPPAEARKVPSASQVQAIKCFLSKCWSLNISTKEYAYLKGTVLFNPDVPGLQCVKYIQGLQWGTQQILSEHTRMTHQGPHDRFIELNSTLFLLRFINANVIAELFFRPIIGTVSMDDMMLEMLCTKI
# BJ [4] = assay: cells; type: functional, cell-based; settings: Homo sapiens
# [5] = test system: Streptococcus sp. 'group A'; assay: Streptococcus pyogenes SK(-)GAS viability under kanamycin – luminescence, BacTiterGlo, confirmation, counter-screen for streptokinase expression inhibitor project, dose response (AID 1900); type: functional, organism-based
# BJ [6] = assay: BJ-TERT-LT-ST fibroblast viability loss – cell-based, RAS-independent, luminescence, dose response (AID 1935); type: functional; settings: Homo sapiens;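 note: BJ fibroblasts immortalized with TERT plus LT and ST oncogenes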
# [7] = molecular target: Luciferin 4-monooxygenase (Photinus pyralis, UniProt P08659); assay: inhibition of purified Photinus pyralis luciferase – biochemical, luminescence, dose response (AID 1891)
# Streptokinase A = molecular target: T4, Streptokinase A (Streptococcus pyogenes serotype M1, UniProt P10520); assay: viability-normalized secreted streptokinase activity reduction – plasminogen activation absorbance, OD405, dose response (AID 1914); type: functional, Streptococcus pyogenes M1 GAS;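 note: secreted streptokinase activity via plasminogen activation per viability signal from cell pellet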
# T4 sequence (P10520 whole entry): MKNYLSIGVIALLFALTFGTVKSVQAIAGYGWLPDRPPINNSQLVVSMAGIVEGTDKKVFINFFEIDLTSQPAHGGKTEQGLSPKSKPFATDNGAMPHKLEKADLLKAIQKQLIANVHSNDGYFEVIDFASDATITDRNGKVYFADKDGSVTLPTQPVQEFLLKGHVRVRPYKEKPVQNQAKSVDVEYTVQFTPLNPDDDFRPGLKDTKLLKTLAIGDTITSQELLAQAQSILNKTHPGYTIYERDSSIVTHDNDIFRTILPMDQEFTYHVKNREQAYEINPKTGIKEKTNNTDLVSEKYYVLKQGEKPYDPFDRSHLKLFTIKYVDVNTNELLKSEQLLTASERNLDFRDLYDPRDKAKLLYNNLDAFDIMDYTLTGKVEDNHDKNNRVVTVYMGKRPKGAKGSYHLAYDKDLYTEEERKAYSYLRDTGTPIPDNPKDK
# [8] = DRD fibroblast viability loss – cell-based, non-viral oncogenic, luminescence, dose response (AID 1934); type: functional; settings: Homo sapiens
# Streptococcus = assay: GAS UMAA2166 growth inhibition – luminescence, BacTiterGlo, counter-screen for streptokinase expression inhibitor project, dose response (AID 1915); type: functional, organism-based;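 note: potency for reduction of bacterial viability or growth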
# cells = type: functional, cell-based
# [9] = Luminescence Cell-Based Dose Confirmation HTS to Identify Inhibitors of Platelet Dense Granule Release. [Related pubchem assays: 1663 (Primary HTS), 1678 (Summary of Project)]; type: functional
# BJ [10] = assay: BJ-TERT fibroblast viability loss – cell-based, RAS-independent, luminescence, dose response (AID 1933); type: functional; settings: Homo sapiens
# Mu-type opioid receptor = Mu-type opioid receptor (Homo sapiens, UniProt P35372); type: functional, cell-based;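 note: U2OS cells with beta-arrestin recruitment to OPRM1 by beta-gal complementation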
# [11] = molecular target: 5-hydroxytryptamine receptor 2A (Mus musculus, UniProt P35363); type: functional, cell-based;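 note: CHO-K1 cells with tagged receptor and beta-arrestin; agonist potency measured as compound-induced activation of the receptor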
# [12] = molecular target: T5, Heat shock factor protein 1 (Mus musculus, UniProt P38532); assay: enhancement of HSF1-driven luciferase signal – cell-based, NIH3T3, luminescence, dose retest, confirmation (AID 435004); type: functional;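 note: stress induced by proteasome inhibitor MG132 added 30 min after compound; luciferase reporter driven by HSF1 response element in NIH3T3 cells; actives raise luminescence as potentiators of the MG132 stress response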
# T5 sequence (P38532 whole entry): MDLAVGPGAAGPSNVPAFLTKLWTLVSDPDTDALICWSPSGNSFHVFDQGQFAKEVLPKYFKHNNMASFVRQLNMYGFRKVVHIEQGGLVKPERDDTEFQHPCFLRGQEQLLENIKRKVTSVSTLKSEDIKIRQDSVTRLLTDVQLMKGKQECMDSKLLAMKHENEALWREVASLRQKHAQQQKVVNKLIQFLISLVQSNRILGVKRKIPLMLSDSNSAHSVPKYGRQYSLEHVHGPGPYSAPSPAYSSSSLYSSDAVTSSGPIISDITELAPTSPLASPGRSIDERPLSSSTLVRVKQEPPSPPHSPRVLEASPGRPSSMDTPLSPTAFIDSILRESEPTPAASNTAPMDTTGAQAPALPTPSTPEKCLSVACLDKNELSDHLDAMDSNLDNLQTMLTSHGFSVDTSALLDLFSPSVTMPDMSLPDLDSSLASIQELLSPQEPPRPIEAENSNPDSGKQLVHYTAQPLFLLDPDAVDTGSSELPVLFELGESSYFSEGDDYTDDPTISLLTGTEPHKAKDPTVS
# [13] = molecular target: T6, Zinc finger protein mex-5 (Caenorhabditis elegans, UniProt Q9XUB2); assay: potency of MEX-5 RNA-binding blockers – biochemical, C. elegans, fluorescence polarization, dose response (AID 1960)
# T6 sequence (Q9XUB2 whole entry): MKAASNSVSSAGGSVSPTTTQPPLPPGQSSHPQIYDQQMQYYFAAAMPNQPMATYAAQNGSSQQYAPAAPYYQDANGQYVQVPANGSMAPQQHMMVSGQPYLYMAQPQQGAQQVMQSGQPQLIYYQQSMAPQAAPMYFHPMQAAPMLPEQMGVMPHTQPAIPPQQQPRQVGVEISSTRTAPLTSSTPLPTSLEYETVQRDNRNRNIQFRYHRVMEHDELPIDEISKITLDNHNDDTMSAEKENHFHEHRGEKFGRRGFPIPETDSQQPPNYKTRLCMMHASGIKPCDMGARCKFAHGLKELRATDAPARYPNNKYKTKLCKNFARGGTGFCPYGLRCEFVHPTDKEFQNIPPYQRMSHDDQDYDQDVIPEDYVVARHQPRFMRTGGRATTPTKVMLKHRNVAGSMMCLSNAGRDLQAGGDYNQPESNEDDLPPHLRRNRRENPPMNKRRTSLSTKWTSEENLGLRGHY
# [14] = molecular target: T7, RNA-binding protein pos-1 (Caenorhabditis elegans, UniProt G5EF15); assay: disruptors of C. elegans POS-1 RNA interaction – biochemical, fluorescence polarization, dose response (AID 1964);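 note: purified POS-1 fused to maltose binding protein made in E. coli; potency of compounds blocking POS-1 binding to fluorescent RNA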
# T7 sequence (G5EF15 whole entry): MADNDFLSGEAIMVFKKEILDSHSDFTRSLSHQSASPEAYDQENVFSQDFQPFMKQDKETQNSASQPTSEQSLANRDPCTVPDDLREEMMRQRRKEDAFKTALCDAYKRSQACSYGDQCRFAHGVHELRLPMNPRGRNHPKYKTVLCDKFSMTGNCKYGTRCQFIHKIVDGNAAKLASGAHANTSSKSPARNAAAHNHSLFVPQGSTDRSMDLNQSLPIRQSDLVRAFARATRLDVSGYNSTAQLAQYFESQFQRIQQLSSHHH
# [15] = viability loss in CEM21 cells – cell-based, CellTiter-Glo luminescence, cherry-picked, cytotoxicity control for viral fusion inhibitor project, dose response (AID 652042); type: functional;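 note: potency for signal decrease meaning cytotoxicity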
# [16] = blockers of HIV-1 envelope-mediated cell-cell fusion – cherry-pick, dose response (AID 652057); type: functional, cell-based
# [17] = HIV-1 AD8 envelope cell-cell fusion blockers – cherry-pick, dose response (AID 652062); type: functional, cell-based;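 note: luciferase signal from cell-cell fusion driven by HIV-1 clade B AD8 Env; potency is for inhibitors of fusion seen as a drop in luminescence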
# [18] = blockers of HIV-1 ZM109 envelope-driven cell-cell fusion – HeLa effector, CEM target cells, luciferase, cherry-pick, dose response (AID 652058); type: functional, cell-based;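 note: luciferase signal from HIV-1 Env mediated cell-cell fusion of effector and target cells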
# [19] = off-target signal loss in HeLa-CEM21 co-culture – HeLa F-luc CTL cells, cherry-picked, counter-screen for HIV-1 Env fusion inhibitor project, dose response (AID 652040); type: functional, cell-based;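 note: potency for signal decrease marking cytotoxic or nonspecific inhibition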
# [20] = molecular target: FAD-linked sulfhydryl oxidase ALR (Homo sapiens, UniProt P55789); assay: ALR-catalysed DTT oxidation blockers – biochemical, H2O2 detection, luminescence, cherry-pick, dose response (AID 493248)
# Sequence of FAD-linked sulfhydryl oxidase ALR (P55789 whole entry): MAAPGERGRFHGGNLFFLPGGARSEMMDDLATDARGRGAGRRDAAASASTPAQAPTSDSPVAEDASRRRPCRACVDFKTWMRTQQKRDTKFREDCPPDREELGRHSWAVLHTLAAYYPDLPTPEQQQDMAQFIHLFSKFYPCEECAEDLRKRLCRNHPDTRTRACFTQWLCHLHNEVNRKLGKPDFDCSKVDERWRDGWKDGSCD
# Sequence of Mu-type opioid receptor (P35372 whole entry): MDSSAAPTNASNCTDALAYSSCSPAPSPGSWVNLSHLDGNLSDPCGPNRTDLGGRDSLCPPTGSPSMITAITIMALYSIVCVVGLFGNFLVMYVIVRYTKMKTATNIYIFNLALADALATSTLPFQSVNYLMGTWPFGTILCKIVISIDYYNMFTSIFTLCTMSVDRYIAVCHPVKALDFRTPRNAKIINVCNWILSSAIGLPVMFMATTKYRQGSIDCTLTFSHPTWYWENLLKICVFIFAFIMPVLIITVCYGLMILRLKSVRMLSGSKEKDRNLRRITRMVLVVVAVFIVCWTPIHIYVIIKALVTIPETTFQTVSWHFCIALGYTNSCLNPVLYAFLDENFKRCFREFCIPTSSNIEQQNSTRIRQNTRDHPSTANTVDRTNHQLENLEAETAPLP
# Sequence of 5-hydroxytryptamine receptor 2A (P35363 whole entry): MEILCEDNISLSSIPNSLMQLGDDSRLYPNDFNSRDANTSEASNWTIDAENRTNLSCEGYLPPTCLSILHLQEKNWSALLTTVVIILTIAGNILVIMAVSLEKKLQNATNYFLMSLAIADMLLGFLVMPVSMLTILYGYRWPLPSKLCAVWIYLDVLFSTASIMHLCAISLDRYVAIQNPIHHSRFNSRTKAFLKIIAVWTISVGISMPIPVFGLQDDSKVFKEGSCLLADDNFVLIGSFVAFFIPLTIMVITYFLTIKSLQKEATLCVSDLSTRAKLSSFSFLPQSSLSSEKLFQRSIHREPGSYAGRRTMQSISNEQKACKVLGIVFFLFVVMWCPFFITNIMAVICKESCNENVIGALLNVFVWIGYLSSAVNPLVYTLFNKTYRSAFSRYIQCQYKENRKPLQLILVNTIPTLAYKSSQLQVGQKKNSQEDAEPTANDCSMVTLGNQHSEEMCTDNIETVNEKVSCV
# Sequence of Luciferin 4-monooxygenase (P08659 whole entry): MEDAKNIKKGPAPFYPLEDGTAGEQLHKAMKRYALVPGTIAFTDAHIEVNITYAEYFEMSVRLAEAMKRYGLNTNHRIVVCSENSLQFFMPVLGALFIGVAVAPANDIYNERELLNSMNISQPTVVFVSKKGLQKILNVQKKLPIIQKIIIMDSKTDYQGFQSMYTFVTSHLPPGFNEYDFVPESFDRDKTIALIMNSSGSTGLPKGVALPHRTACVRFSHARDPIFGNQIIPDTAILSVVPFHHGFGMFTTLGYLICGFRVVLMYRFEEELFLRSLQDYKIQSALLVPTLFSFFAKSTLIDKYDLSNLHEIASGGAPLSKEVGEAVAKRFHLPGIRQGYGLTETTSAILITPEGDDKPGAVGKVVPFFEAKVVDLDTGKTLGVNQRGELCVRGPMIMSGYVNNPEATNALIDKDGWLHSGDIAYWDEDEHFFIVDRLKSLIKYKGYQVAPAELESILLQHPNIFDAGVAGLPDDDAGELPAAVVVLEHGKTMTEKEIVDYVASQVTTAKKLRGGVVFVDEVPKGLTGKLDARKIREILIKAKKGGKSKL
# Sequence of Large T antigen (P03070 whole entry): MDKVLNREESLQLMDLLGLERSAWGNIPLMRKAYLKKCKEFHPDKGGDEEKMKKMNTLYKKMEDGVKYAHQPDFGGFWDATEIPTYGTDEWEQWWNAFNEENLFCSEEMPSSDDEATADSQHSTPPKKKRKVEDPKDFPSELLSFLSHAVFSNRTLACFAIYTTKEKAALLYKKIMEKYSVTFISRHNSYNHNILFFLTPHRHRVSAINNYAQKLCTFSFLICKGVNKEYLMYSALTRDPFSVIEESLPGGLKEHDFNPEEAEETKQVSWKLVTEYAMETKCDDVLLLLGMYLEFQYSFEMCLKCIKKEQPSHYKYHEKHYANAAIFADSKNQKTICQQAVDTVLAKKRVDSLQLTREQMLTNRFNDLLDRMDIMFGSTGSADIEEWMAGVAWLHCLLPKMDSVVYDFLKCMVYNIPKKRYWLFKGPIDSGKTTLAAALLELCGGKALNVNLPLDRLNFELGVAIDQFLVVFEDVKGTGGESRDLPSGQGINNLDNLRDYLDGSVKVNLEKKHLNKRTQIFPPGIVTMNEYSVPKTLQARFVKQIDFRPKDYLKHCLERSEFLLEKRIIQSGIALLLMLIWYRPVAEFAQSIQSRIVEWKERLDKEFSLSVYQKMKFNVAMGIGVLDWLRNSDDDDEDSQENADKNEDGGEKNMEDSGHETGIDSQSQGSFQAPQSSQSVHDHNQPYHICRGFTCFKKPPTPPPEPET
smiles,measurement,setting,value
OC1CCN(C(S)=Nc2ccc(Nc3ccccc3)cc2)CC1,AC50,[1],> 100 µM (inactive)
same,IC50,[2],38.7 µM (active)
same,IC50,Large T antigen,6.93 µM (active)
O=Nc1c2cc(-c3ccccc3)n[nH]c-2c2ccccc12,IC50,[3],> 0.833 µM (active)
same,EC50,BJ [4],6.29 µM (active)
same,EC50,[5],5.57 µM (active)
same,EC50,BJ [6],> 150 µM (not active)
same,EC50,[7],0.222 µM (active)
same,EC50,Streptokinase A,> 150 µM (not active)
same,EC50,[8],4.14 µM (active)
same,EC50,Streptococcus,14.7 µM (active)
same,IC50,cells,> 67.5 µM (inactive)
same,EC50,[9],1.47 µM (active)
same,EC50,BJ [10],6.53 µM (active)
COc1cccc(CN2CCN(c3ncccn3)CC2)c1OC,EC50,Mu-type opioid receptor,92.5 µM (inactive)
same,EC50,[11],21.6 µM (inactive)
OCC1(Cc2cccc(C(F)(F)F)c2)CCN(Cc2cc3ccccc3o2)CC1,EC50,[12],> 260 µM (inactive)
same,EC50,Mu-type opioid receptor,92.5 µM (inactive)
same,EC50,[11],3.6 µM (active)
Cc1cccc(NC(=O)CN2C(=O)N/C(=C\c3cccn3-c3cccc(C(=O)O)c3)C2=O)c1,AC50,[1],> 100 µM (inactive)
same,EC50,[13],> 300 µM (not active)
same,EC50,[14],> 300 µM (not active)
O=C(CSc1cccc[n+]1[O-])c1ccc(-c2ccccc2)cc1,IC50,[3],> 67.5 µM (inactive)
same,IC50,cells,> 67.5 µM (inactive)
C(=C\c1ccccc1)/CN1CCN(C(c2nnnn2-c2ccc3c(c2)OCCO3)C2CC2)CC1 (stereo not drawn),EC50,Mu-type opioid receptor,92.3 µM (inactive)
same,EC50,[11],76 µM (inactive)
Cc1cnc(C)c(Nc2nc(C(N)Cc3ccc(C(F)(F)F)cc3)cs2)n1 (stereo not drawn),AC50,[15],18.1 µM (active)
same,AC50,[16],5.44 µM (active)
same,AC50,[17],7.29 µM (active)
same,AC50,[18],10.5 µM (active)
same,AC50,[19],5.07 µM (active)
O=C(O)c1cccc2c1-c1ccccc1/C2=N\Nc1ccccc1,AC50,[1],> 100 µM (inactive)
same,AC50,[20],0.264 µM (active)
